“And” between values parts separate entries of the source, which are not always exact repeats. Equal values may be shown once. Where a name gives a salt, the structure may show the parent alone.
Assays:
patients with FMS = settings: open-label, cited from earlier work
[1] = system: subjects suffering from fibromyalgia syndrome; settings: cited from earlier work; for Subjects with significant clinical improvement: after one month; for Difference between treatment group and placebo: at three months
[2] = system: patients who met the 1990 ACR criteria for fibromyalgia syndrome; assay: Example 1 study: composite responder analysis for pain of fibromyalgia (pain reduction plus PGIC); format: in vivo, human; settings: for Responders for the treatment of the pain of fibromyalgia, % = m/n: observed cases (OC), hydrochloride; for Responders for the treatment of the pain of fibromyalgia, m (number of responders): observed cases
Description: (§1) This was a multi-center, randomized, double-blinded, placebo-controlled three-arm study, which enrolled 888 patients who met the 1990 ACR criteria for fibromyalgia syndrome as well as the more detailed admission criteria outlined in the protocol.
(§2) All randomized medications (placebo and milnacipran) were administered in a split-dose (BID) fashion. The doses were administered in a dose escalation regimen as outlined below:
The primary endpoint of this study was a composite responder analysis implementing analysis of three domains of interest, evaluated at […]. The domains measured were:
1) pain (measured by an electronic diary as a daily recall pain score, calculated to weekly average scores)
2) patient global (measured by the PGIC, 1-7 scale)
For the primary analysis, the pain domain score was determined by a calculation that compared the average of treatment weeks 14 and 15 to the two baseline weeks, and treatment weeks 26 and 27 vs. baseline for the secondary analysis. The last observation was carried forward if neither the week 14 nor week 15 (or week 26/27) patient self-reported pain score is available to compare to the baseline value.
A responder was defined as a subject who experienced a greater than 30% reduction in pain from baseline and improvement on the PGIC.
See Table 1 for a summary of the results in the Intent-to-Treat Population and Table 2 for a summary of the Last Observation Carried Forward (LOCF), Baseline Observation Carried Forward (BOCF) and study completer (OC) populations. LOCF is an analysis in which observations are carried forward to the last time point for patients who dropped out. The LOCF analysis treats the carried-forward data as observed data at the last time point. BOCF is an analysis that requires that the patient remain active in the trial to be evaluated for response. If a patient withdraws from the trial for any reason they are classed as a non-responder irregardless of their pain and global scores at the time of withdrawal.

[3] = system: patients who met the 1990 ACR criteria for fibromyalgia syndrome; assay: Example 1 study: MASQ total score (cognitive function), change from baseline; format: in vivo, human; design: MASQ Total Score - Change from Baseline: scale not given here
Description: as §1, §2
d. FMS Status Assessments: Patient pain 24 hour and 7 day recall VAS, the SF-36, Multiple Ability Self-report Questionnaire (MAS Q, cognitive function), the Multidimensional Health Assessment Questionnaire (MDHAQ) and the Multidimensional Fatigue Inventory (MFI). Diary assessments include current pain (morning, random daily, and evening reports); daily recall pain (morning report); medications taken (evening report); overall pain past week (weekly report), overall fatigue in the last week (weekly report), and the extent that pain kept the patient from caring for themselves (weekly report).
The MASQ is a brief self-report questionnaire, which includes 5 cognitive domains: language ability, visuo-perceptual ability, verbal memory, visual memory, and attention/concentration (Seidenberg et al., J Clin & Exp Neuropsychology 1994; 16:93-104). The MASQ has been validated in both normal subjects and patient groups having cognitive difficulties in the assessment domains.

[4] = system: patients who meet the 1990 ACR criteria for fibromyalgia syndrome; assay: Example 2 study: MASQ total score, 3-month treatment period; format: in vivo, human; design: MASQ total score, Actual, Mean / MASQ total score, Change from baseline, Mean / MASQ total score, Actual, Median / MASQ total score, Change from baseline, Median: scale not given here; settings: for MASQ total score change, Difference from Placebo / MASQ total score, Change from baseline, LS Mean (SE): 3-month (LOCF), ITT, ANCOVA model; for MASQ total score, Actual, Mean / MASQ total score, Actual, Median / MASQ total score, Change from baseline, Mean / MASQ total score, Change from baseline, Median: 3-month treatment period (LOCF), intent-to-treat
Description: This was a multicenter, randomized, double-blind, placebo-controlled three-arm study designed which enrolled 1196 patients who meet the 1990 ACR criteria for fibromyalgia syndrome (history of widespread pain and pain in 11 of 18 tender point sites on digital palpation), as well as the more detailed admission criteria outlined in the protocol.
All randomized medications (placebo and milnacipran) were administered twice a day (BID).
(iii) Additional Efficacy Measurements: The Fibromyalgia Impact Questionnaire (FIQ) total score and physical function, Beck Depression Inventory (BDI), the MOS-Sleep Index Scale, the Arizona Sexual Experiences Scale (ASEX), Patient pain 24 hour and 7 day recall VAS, the SF-36 individual domains, Patient Global Disease Status, Patient Global Therapeutic Benefit, the Multiple Ability Self-report Questionnaire (MASQ, cognitive function), the Multidimensional Health Assessment Questionnaire (MDHAQ), Multidimensional Fatigue Inventory (MFI), and diary assessments including current pain (morning, random daily, and evening reports); overall pain past week (weekly report), overall fatigue in the last week (weekly report), and the extent that pain kept the patient from caring for themselves (weekly report).

fibromyalgia patients [5] = settings: cited from earlier work
fibromyalgia patients [6] = settings: cited from earlier work; remark: listed apart in the source

**Q.** What does the source list for COc1ccc(C(CN(C)C)C2(O)CCCCC2)cc1 (stereo not shown) [venlafaxine]?
**A.** Completing patients with insomnia requiring adjunctive medical therapy (patients with FMS; 11 completing patients): 3 of 11; Completing patients with a positive response (50% or greater improvement in two measurements of overall pain) (patients with FMS; 15 patients, 11 completing): Six of 11

**Q.** For CN(C)CCC=C1c2ccccc2C=Cc2ccccc21 [cyclobenzaprine], which “Subjects with significant clinical improvement” value [1] is on record?
**A.** 12%

**Q.** What about the “Difference between treatment group and placebo” value [1] of the same compound?
**A.** no difference

**Q.** What does the source list for CCN(CC)C(=O)C1(c2ccccc2)CC1CN (racemic) [milnacipran, Z-2-aminomethyl-1-phenyl-N,N-diethylcyclopropanecarboxamide hydrochloride]?
**A.** Responders for the treatment of the pain of fibromyalgia, % = m/n ([2]; 100 mg/day BID, treatment weeks 14-15 (3 month)): 53.33% and 53.3%; Responders for the treatment of the pain of fibromyalgia, % = m/n ([2]; 100 mg/day BID, treatment weeks 14-15 (3 month), listed as Milnacipran): 53.33%; Responders for the treatment of the pain of fibromyalgia, % = m/n ([2]; 100 mg/day BID, treatment weeks 26-27 (6 month)): 49.59% and 49.6%; Responders for the treatment of the pain of fibromyalgia, % = m/n ([2]; 100 mg/day BID, treatment weeks 26-27 (6 month), listed as Milnacipran): 49.59%; Long-term treatment of fibromyalgia and some of its symptoms, low dose compared with high dose ([2]; 100 mg/day vs 200 mg/day, continued administration): almost as effective as continued administration of high-dose milnacipran; Responders for the treatment of the pain of fibromyalgia, m (number of responders) ([2]; 100 mg/day, treatment weeks 14-15, n = 135): 72; Responders for the treatment of the pain of fibromyalgia, m (number of responders) ([2]; 100 mg/day, treatment weeks 26-27, n = 121): 60; Individual component responder rate, PGIC (LOCF) ([2]; 100 mg, 3 month): 54.0%; Individual component responder rate, Pain (LOCF) ([2]; 100 mg, 3 month): 35.7%; Pain composite responder rate, Sensitivity Analysis I (BOCF) ([2]; 100 mg, 3 month): 32.1%; Pain composite responder rate, Sensitivity Analysis II ([2]; 100 mg, 3 month): 32.%; Pain composite responder rate, Sensitivity Analysis III ([2]; 100 mg, 3 month): 32.1%; Pain composite responder rate, Primary Analysis (LOCF) ([2]; 100 mg, 3 month, N = 224): 33.5%; Individual component responder rate, PGIC (LOCF) ([2]; 100 mg, 6 month): 49.6%; Individual component responder rate, Pain (LOCF) ([2]; 100 mg, 6 month): 35.7%; Pain composite responder rate, Sensitivity Analysis I (BOCF) ([2]; 100 mg, 6 month): 26.8%; Pain composite responder rate, Sensitivity Analysis II ([2]; 100 mg, 6 month): 27.2%; Pain composite responder rate, Sensitivity Analysis III ([2]; 100 mg, 6 month): 29.5%; Pain composite responder rate, Primary Analysis (LOCF) ([2]; 100 mg, 6 month, N = 224): 30.8%; Responders for the treatment of the pain of fibromyalgia, % = m/n ([2]; 200 mg/day BID, treatment weeks 14-15 (3 month)): 55.0%; Responders for the treatment of the pain of fibromyalgia, % = m/n ([2]; 200 mg/day BID, treatment weeks 14-15 (3 month), listed as Milnacipran): 55.00%; Responders for the treatment of the pain of fibromyalgia, % = m/n ([2]; 200 mg/day BID, treatment weeks 26-27 (6 month)): 51.74% and 51.7%; Responders for the treatment of the pain of fibromyalgia, % = m/n ([2]; 200 mg/day BID, treatment weeks 26-27 (6 month), listed as Milnacipran): 51.74%; Responders for the treatment of the pain of fibromyalgia, m (number of responders) ([2]; 200 mg/day, treatment weeks 14-15, n = 260): 143; Responders for the treatment of the pain of fibromyalgia, m (number of responders) ([2]; 200 mg/day, treatment weeks 26-27, n = 230): 119; Individual component responder rate, PGIC (LOCF) ([2]; 200 mg, 3 month): 50.6%; Individual component responder rate, Pain (LOCF) ([2]; 200 mg, 3 month): 38.3%; Pain composite responder rate, Sensitivity Analysis I (BOCF) ([2]; 200 mg, 3 month): 32.4%; Pain composite responder rate, Sensitivity Analysis II ([2]; 200 mg, 3 month): 32.7%; Pain composite responder rate, Sensitivity Analysis III ([2]; 200 mg, 3 month): 32.4%; Pain composite responder rate, Primary Analysis (LOCF) ([2]; 200 mg, 3 month, N = 441): 34.9%; Individual component responder rate, PGIC (LOCF) ([2]; 200 mg, 6 month): 49.9%; Individual component responder rate, Pain (LOCF) ([2]; 200 mg, 6 month): 35.4%; Pain composite responder rate, Sensitivity Analysis I (BOCF) ([2]; 200 mg, 6 month): 27.0%; Pain composite responder rate, Sensitivity Analysis II ([2]; 200 mg, 6 month): 28.6%; Pain composite responder rate, Sensitivity Analysis III ([2]; 200 mg, 6 month): 29.9%; Pain composite responder rate, Primary Analysis (LOCF) ([2]; 200 mg, 6 month, N = 441): 32.2%; Treatment of cognitive dysfunction associated with FMS (change in MASQ total score), comparison with placebo ([3]; 100 mg/day vs placebo): superior to placebo; MASQ Total Score - Change from Baseline ([3]; 100 mg, treatment week 3): −0.39; MASQ Total Score - Change from Baseline ([3]; 100 mg, treatment week 7): −0.34; MASQ Total Score - Change from Baseline ([3]; 100 mg, treatment week 11): −1.33; MASQ Total Score - Change from Baseline ([3]; 100 mg, treatment week 15): −1.18; MASQ Total Score - Change from Baseline ([3]; 100 mg, treatment week 19): −1.60; MASQ Total Score - Change from Baseline ([3]; 100 mg, treatment week 23): −0.89; MASQ Total Score - Change from Baseline ([3]; 100 mg, treatment week 27): −1.07; Treatment of cognitive dysfunction associated with FMS (change in MASQ total score), 200 mg/day compared with 100 mg/day ([3]; 200 mg/day vs 100 mg/day): superior to milnacipran 100 mg/day; Treatment of cognitive dysfunction associated with FMS (change in MASQ total score), comparison with placebo ([3]; 200 mg/day vs placebo): superior to placebo; MASQ Total Score - Change from Baseline ([3]; 200 mg, treatment week 3): −1.60; MASQ Total Score - Change from Baseline ([3]; 200 mg, treatment week 7): −1.77; MASQ Total Score - Change from Baseline ([3]; 200 mg, treatment week 11): −1.73; MASQ Total Score - Change from Baseline ([3]; 200 mg, treatment week 15): −1.76; MASQ Total Score - Change from Baseline ([3]; 200 mg, treatment week 19): −1.63; MASQ Total Score - Change from Baseline ([3]; 200 mg, treatment week 23): −1.52; MASQ Total Score - Change from Baseline ([3]; 200 mg, treatment week 27): −1.89; MASQ total score change, Difference from Placebo ([4]; 100 mg): −1.13; MASQ total score, Change from baseline, LS Mean (SE) ([4]; 100 mg): −3.93 (0.786); MASQ total score, Actual, Mean ([4]; 100 mg): 88.86; MASQ total score, Actual, Median ([4]; 100 mg): 89.0; MASQ total score, Change from baseline, Mean ([4]; 100 mg): −3.34; MASQ total score, Change from baseline, Median ([4]; 100 mg): −3.0; MASQ total score change, Difference from Placebo ([4]; 200 mg): −1.12; MASQ total score, Change from baseline, LS Mean (SE) ([4]; 200 mg): −4.51 (0.797); MASQ total score, Actual, Mean ([4]; 200 mg): 89.63; MASQ total score, Actual, Median ([4]; 200 mg): 90.5; MASQ total score, Change from baseline, Mean ([4]; 200 mg): −3.75; MASQ total score, Change from baseline, Median ([4]; 200 mg): −3.0; Acute (short-term) therapy for the symptom of pain in FMS (fibromyalgia patients [5]; 100 mg BID): effective acute (short-term) therapy; Effect on fatigue, mood, global wellness, and function, BID compared with QD dosing (fibromyalgia patients [5]; BID vs QD, up to 200 mg/day): approximately equally effective; Treating pain, twice-daily dosing compared with QD dosing (fibromyalgia patients [5]; BID vs QD, up to 200 mg/day): more effective in treating pain than QD dosing; PGIC: completers who reported an improvement in their overall status (fibromyalgia patients [5]; both milnacipran treatment groups (BID and QD), up to 200 mg/day): over 70%; PGIC: completers who reported worsening (fibromyalgia patients [5]; milnacipran treatment groups, up to 200 mg/day): 10%; Deaths or serious adverse events associated with treatment (fibromyalgia patients [6]; Phase II study): no deaths or serious adverse events; Patients with adverse events from elevation in hepatic enzymes (fibromyalgia patients [6]; milnacipran-treated patients): 2%

**Q.** Which “Subjects with significant clinical improvement” value [1] does the source give for CN(C)CCC=C1c2ccccc2CCc2ccccc21 [amitriptyline] here?
**A.** 21%

**Q.** What about the “Difference between treatment group and placebo” value [1] of the same compound?
**A.** no difference
